According to patent US9593122B2, “Substituted pyrazolylpyrazole derivative and use of same as herbicide” (KYOYU AGRI CO., LTD., priority 2013, dated 2017):

Columns and labels:
Assay in all cases: Paddy herbicidal activity test
Type in all cases: in vivo
Scirpus juncoides = settings: irrigated paddy pot, 30 days
Procedure: (§1) Rice paddy soil was filled into a 1/10000 are pot followed by the addition of suitable amounts of water and chemical fertilizer, kneading, seeding with Echinochloa crus-galli, Monochoria vaginalis and Scirpus juncoides and maintaining in an irrigated state at a water depth of 3 cm.
(§2) Wettable powder of Target Compound (I) shown in Table 1 prepared in compliance with the preparation examples were diluted with a suitable amount of water, rice plants in the 2.0 leaf stage were transplanted during 3.5 leaf stage of Echinochloa crus-galli, and treated by dropping in chemical in the prescribed amount per are using a pipette.
(§3) After treating for 30 days in a glass greenhouse at an average atmospheric temperature of 30° C., the herbicidal efficacy thereof was investigated.
(§4) Evaluation of herbicidal efficacy was carried out by comparing growth inhibition rate (%) with an untreated group, while evaluation of phytotoxicity was carried out by comparing growth inhibition rate (%) with the state of a complete eradication group, and were evaluated at 11 levels indicated below.

Monochoria vaginalis = settings: irrigated paddy pot, 30 days
Procedure: as §1, §2, §3, §4

Echinochloa crus-galli = settings: irrigated paddy pot, treated at 3.5 leaf stage of Echinochloa crus-galli, 30 days
Procedure: as §1, §2, §3, §4

Structure (SMILES)	Scirpus juncoides herbicidal efficacy (growth inhibition level) (Scirpus juncoides; 1g a.i./10a)	Scirpus juncoides herbicidal efficacy (growth inhibition level) (Scirpus juncoides; 5g a.i./10a)	Monochoria vaginalis herbicidal efficacy (growth inhibition level) (Monochoria vaginalis; 1g a.i./10a)	Monochoria vaginalis herbicidal efficacy (growth inhibition level) (Monochoria vaginalis; 5g a.i./10a)	Echinochloa crus-galli herbicidal efficacy (growth inhibition level) (Echinochloa crus-galli; 1g a.i./10a)	Echinochloa crus-galli herbicidal efficacy (growth inhibition level) (Echinochloa crus-galli; 5g a.i./10a)
N#Cc1cnn(-c2nn3c(c2Br)CCCC3)c1N(C/C=C\Cl)C(=O)C(F)(F)F [Compound 53]	7 (7: 70% to less than 80%)	8 (8: 80% to less than 90%)	7 (7: 70% to less than 80%)	8 (8: 80% to less than 90%)	9 (9: 90% to less than 100%)	10 (10: 100%)
N#Cc1cnn(-c2nn3c(c2Br)CCCC3)c1NCC(Cl)=CCl (mixture of isomers) [Compound 46]	7 (7: 70% to less than 80%)	8 (8: 80% to less than 90%)	7 (7: 70% to less than 80%)	8 (8: 80% to less than 90%)	7 (7: 70% to less than 80%)	8 (8: 80% to less than 90%)
C=C(C)CN(C(=O)C(F)(F)F)c1c(C#N)cnn1-c1nn2c(c1Cl)CCCC2 [Compound 19]	7 (7: 70% to less than 80%)	8 (8: 80% to less than 90%)	9 (9: 90% to less than 100%)	9 (9: 90% to less than 100%)	9 (9: 90% to less than 100%)	10 (10: 100%)
N#Cc1cnn(-c2nn3c(c2Cl)CCCC3)c1NCCC(F)=C(F)F [Compound 6]	8 (8: 80% to less than 90%)	8 (8: 80% to less than 90%)	7 (7: 70% to less than 80%)	8 (8: 80% to less than 90%)	9 (9: 90% to less than 100%)	9 (9: 90% to less than 100%)
C=CCN(C(=O)C(F)(F)F)c1c([N+](=O)[O-])cnn1-c1nn2c(c1Cl)CCCC2 [Compound 36]	8 (8: 80% to less than 90%)	9 (9: 90% to less than 100%)	8 (8: 80% to less than 90%)	9 (9: 90% to less than 100%)	9 (9: 90% to less than 100%)	10 (10: 100%)
CC(C)=CCNc1c(C#N)cnn1-c1nn2c(c1Br)CCCC2 [Compound 48]	7 (7: 70% to less than 80%)	8 (8: 80% to less than 90%)	8 (8: 80% to less than 90%)	10 (10: 100%)	8 (8: 80% to less than 90%)	9 (9: 90% to less than 100%)
C=CCCNc1c(C#N)cnn1-c1nn2c(c1Br)CCCC2 [Compound 42]	8 (8: 80% to less than 90%)	8 (8: 80% to less than 90%)	7 (7: 70% to less than 80%)	8 (8: 80% to less than 90%)	8 (8: 80% to less than 90%)	9 (9: 90% to less than 100%)
